One assay concerns H9C2 cardiomyocyte cells. Put plainly: Sterol concentration in H9C2 cells after MßCD depletion (Amplex Red / BCA). It counts as cell-based, rat. The note with it: sterol-MßCD complex, 68 microM sterol, 4 hours. The procedure: Rat embryonic cardiomyocyte H9C2 cells were cultured in high-glucose DMEM (Gibco 41965-039) supplemented with 10% fetal bovine serum (FBS, Gibco 10270-106) and 100 U/ml of penicillin/streptomycin at 37° C. in a humidified atmosphere of 5% CO2. Cells were split every 2-3 days.
Two days prior to experimentation, cells were seeded in 6 well plates (Corning N-3516) 3×10^5 cells/well. Before any treatment. cells were washed twice with prewarmed PBS.
(§1) Cells were incubated in 5 mM solution MßCD in DMEM for 30 minutes. Before treatment cells were washed twice with prewarmed PBS to remove remaining FBS and prevent contamination of exogenous cholesterol.
After MßCD treatment cells were washed twice with prewarmed PBS to remove remaining MßCD solution and then incubated for 4 hours with either (i) complex Cholesterol—MßCD or (ii) Sitosterol—MßCD. These were prepared according to the protocol reported by Klein et al. (Biochemistry 1995; 34:13784). […]
After incubation MßCD-treated, MßCD/Sterol treated, and untreated (control) cells were washed twice with ice-cold PBS and lysed with phosphate buffer (0.1 M potassium phosphate pH 7.4, 50 mM NaCl, 5 mM cholic acid, 0.1% Triton X-100, protease inhibitors) on ice. […] Protein and sterol concentrations were measured by BCA and Cholesterol Amplex Red assays, respectively. […]

For another assay, the system named is H9C2 cell line. Description: Western blot of ERK2 phosphorylation after adrenaline treatment (adrenergic signalling). It counts as cell-based, rat. Particulars: for ERK2 phosphorylation after adrenaline treatment: H9C2 depleted with MßCD, then incubated with sterol. The procedure:
as §1
After MßCD treatment cells were washed twice with prewarmed PBS to remove remaining MßCD solution and then incubated for 4 hours with either (i) complex Cholesterol—MßCD or (ii) Sitosterol—MßCD. These were prepared according to the protocol reported by Klein et al. (Biochemistry 1995; 34:13784). Sterol complexes were diluted ×100 in DMEM to produce final concentrations of 68 microM cholesterol, 68 microM sitosterol and 700 microM MßCD.
Control, MßCD or MßCD/sterol-treated cells were incubated for 10 minutes with adrenaline or noradrenaline solution in DMEM (final concentration 10^−7M).
Cells were washed and lysed on plates with RIPA buffer supplemented by protease and phosphatase inhibitors on ice for 30 minutes. Lysates were treated as described above for sterol determination. Protein concentration was determined by BCA assay. Western blot samples were prepared by mixing the lysates with 5× loading buffer (Tris HCl pH 6.8 312.5 mM, SDS 10%, bME 12.5%, glycerol 47.5%, bromophenol blue 0.01%). 2 mcg of protein/sample was separated by electrophoresis on 10% SDS-PAGE and transferred to a PVDF membrane. Membrane was blocked with 5% BSA in TBST for 1 hour at room temperature with gentle agitation and incubated with primary anti-pERK or anti-PFK antibodies overnight at 4° C. Both primary antibodies were diluted 2000 times in 5% BSA in TBST. […]
Chemiluminescent detection was performed using the Clarity TM Western ECL Substrate (Bio-Rad). Band intensity was analysed by Image Studio Lite ver5.2. Results are calculated as a ratio of intensities of pERK2 band to PFK band for each sample and normalized as a percentage from the average of samples treated with adrenaline only.
A general note: Immunoblotting shows a protein as a band on a membrane.

Assay [1] concerns sham-operated rats and septic rats. Description: Catecholamine responsiveness study (dobutamine / noradrenaline challenge) in rat faecal peritonitis model. It counts as in vivo. The note with it: 10 minutes after commencement of infusion. The protocol: II. Sepsis was induced in awake, instrumented male Wistar rats (316±23.5 g) as described above but using 7 microL of faecal slurry/g body weight. Rats were allocated into sham-operated (control), sepsis and sepsis+cholesterol groups.
At 6 h post-induction of sepsis, the sepsis+cholesterol group received an i.v. infusion of a cholesterol-loaded formulation, either liposomal- or bovine HDL (10 mg cholesterol/300 g bw), which was continued over 15 hours.
At 21 h, catecholamine responsiveness was tested by consecutively administering, under isoflurane anaesthesia, the beta-adrenergic agonist, dobutamine (10 μg/kg/min for 10 min) and then the predominant alpha-adrenergic agonist, norepinephrine (0.5 μg/kg/min for 10 min) with a 30 min washout period in between.
Blood pressure (measured continuously from an indwelling carotid line), heart rate and stroke volume (measured by echocardiography) were measured before and at 10 minutes after each drug was infused.

The test system of the next assay is H9C2 cardiomyocytes. Put plainly: ERK1 and ERK2 phosphorylation after dobutamine treatment (adrenergic signalling). The assay is classed as cell-based, rat. The note with it: H9C2 treated with MßCD alone. The procedure:
Adrenergic signalling was evaluated in the H9C2 cardiomyocytes by the increase of ERK1 and ERK2 phosphorylation after dobutamine treatment.

Setting [2] is: septic rats, 21 h post-faecal peritonitis.

From US20250120986A1, “STEROL THERAPY” (UCL BUSINESS LTD, priority 2021, published 2025) come the findings set out here.

With `CC(C)CCC[C@@H](C)[C@H]1CC[C@H]2[C@@H]3CC=C4C[C@@H](O)CC[C@]4(C)[C@H]3CC[C@]12C` [cholesterol, Cholesterol], the “cellular sterol content after MßCD depletion” value in the assay on H9C2 cardiomyocyte cells is recorded as “Sterol content was restored”. Also, the “ERK2 phosphorylation after adrenaline treatment” value with H9C2 cell line is on record as 2 × normal.

For the compound `CC(CCc1ccc(O)cc1)NCCc1ccc(O)c(O)c1` (stereo not shown) [dobutamine], the “stroke volume response to the agonist” value in assay [1] (setting [2]) is on record as “non-responsive”; in assay [1] (sham animals), “significant rises”.

With `NC[C@H](O)c1ccc(O)c(O)c1` [noradrenaline], the “blood pressure response to the agonist” value is on record as “non-responsive” in assay [1] (setting [2]) and “significant rises” in assay [1] (sham animals).

Regarding `CC[C@H](CC[C@@H](C)[C@H]1CC[C@H]2[C@@H]3CC=C4C[C@@H](O)CC[C@]4(C)[C@H]3CC[C@]12C)C(C)C` [sitosterol, Sitosterol], the “cellular sterol content after MßCD depletion” value with H9C2 cardiomyocyte cells was “Sterol content was restored”. In addition, the “ERK2 phosphorylation after adrenaline treatment” value with H9C2 cell line is given as 2 × normal.

Methyl-β-cyclodextrin [MßCD]: the “phosphorylation of ERK1 and ERK2 after dobutamine treatment” value in the assay with H9C2 cardiomyocytes was “decreased phosphorylation of both ERK1 and ERK2”. Besides, the “ERK2 phosphorylation after adrenaline treatment (in words)” value in the assay with H9C2 cell line (H9C2, 5 mM MßCD for 30 minutes) was “decreased ERK2 phosphorylation”.
